In ChEMBL document CHEMBL3886981, “Phenylpyrazole derivatives as potent ROCK1 and ROCK2 inhibitors” (2016):

Biological target: Rho-associated protein kinase 2 (Homo sapiens, UniProt O75116)
Assay: In Vitro Assay: The effectiveness of compounds of the present invention as ROCK inhibitors can be determined in a 30 μL assay containing 20 mM HEPES, pH 7.5, 20 mM MgCl2, 0.015% Brij-35, 4 mM DTT, 5 μM ATP and 1.5 μM peptide substrate (FITC-AHA-[…]-OH). Compounds were dissolved in DMSO so that the final concentration of DMSO was <2%, and the reaction was initiated with Rho kinase variants. After incubation, the reaction was terminated by the addition of EDTA and the phosphorylated and non-phosphorylated peptides separated using a LABCHIP® 3000 Reader (Caliper Life Sciences).

Rho-associated protein kinase 2, sequence (O75116 whole entry, looked up, change not shown): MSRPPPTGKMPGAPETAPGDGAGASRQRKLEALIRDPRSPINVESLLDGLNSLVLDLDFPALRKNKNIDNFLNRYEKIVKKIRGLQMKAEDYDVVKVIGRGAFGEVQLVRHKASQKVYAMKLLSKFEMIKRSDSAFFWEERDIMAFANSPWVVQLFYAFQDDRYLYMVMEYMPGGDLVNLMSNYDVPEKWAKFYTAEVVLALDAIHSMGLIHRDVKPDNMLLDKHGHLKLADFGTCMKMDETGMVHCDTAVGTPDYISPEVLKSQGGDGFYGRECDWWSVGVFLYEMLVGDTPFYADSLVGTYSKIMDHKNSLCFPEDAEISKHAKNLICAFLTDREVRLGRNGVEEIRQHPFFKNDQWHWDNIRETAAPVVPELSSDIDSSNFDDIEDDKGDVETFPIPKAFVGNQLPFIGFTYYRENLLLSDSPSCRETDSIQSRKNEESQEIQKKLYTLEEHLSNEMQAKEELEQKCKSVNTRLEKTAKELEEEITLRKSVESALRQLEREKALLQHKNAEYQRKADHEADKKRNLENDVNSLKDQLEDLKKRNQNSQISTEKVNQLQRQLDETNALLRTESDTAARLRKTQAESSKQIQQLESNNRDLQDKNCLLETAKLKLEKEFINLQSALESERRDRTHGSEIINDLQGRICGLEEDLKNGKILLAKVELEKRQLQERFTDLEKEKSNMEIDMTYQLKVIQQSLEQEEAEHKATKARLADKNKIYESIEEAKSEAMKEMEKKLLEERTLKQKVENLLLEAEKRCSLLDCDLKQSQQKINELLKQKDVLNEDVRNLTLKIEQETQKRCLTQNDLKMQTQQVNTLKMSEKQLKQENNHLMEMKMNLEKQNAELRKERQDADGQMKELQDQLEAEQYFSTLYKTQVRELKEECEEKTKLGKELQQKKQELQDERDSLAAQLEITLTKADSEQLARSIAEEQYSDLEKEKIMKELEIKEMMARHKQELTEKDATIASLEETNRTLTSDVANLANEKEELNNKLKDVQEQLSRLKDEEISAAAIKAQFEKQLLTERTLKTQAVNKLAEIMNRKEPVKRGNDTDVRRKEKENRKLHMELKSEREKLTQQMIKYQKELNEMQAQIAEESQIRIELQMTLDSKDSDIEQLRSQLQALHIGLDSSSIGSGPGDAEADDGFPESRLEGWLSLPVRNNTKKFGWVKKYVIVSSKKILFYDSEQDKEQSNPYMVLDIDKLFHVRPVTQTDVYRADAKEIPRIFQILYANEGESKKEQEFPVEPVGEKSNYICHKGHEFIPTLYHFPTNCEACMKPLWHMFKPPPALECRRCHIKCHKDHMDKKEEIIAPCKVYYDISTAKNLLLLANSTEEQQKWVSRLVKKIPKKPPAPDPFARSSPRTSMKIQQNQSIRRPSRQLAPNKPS

- IC50: 662 nM
Compound: COc1cc(C(=O)NCC2=CCC3NC(=O)NC3=C2)ccc1-c1cn[nH]c1 (stereo unspecified)
